pIC50: −log10 of the molar value.
Target: human TRPA1 (Homo sapiens (Human), UniProt O75762)
Assay: FLIPR Tetra calcium influx assay, block of cinnamaldehyde-induced calcium influx in CHO cells expressing TRPA1 (human)
Type: cell-based
Settings: 20 min compound incubation, 75 uM cinnamaldehyde (~EC80), Hill coefficient fixed to 1.5, read-out: hTRPA1 AUC IC50
Outline: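 CHO cells loaded with calcium dye, preincubated with compounds 20 min at room temperature in HBSS/20 mM HEPES pH 7.4 with 0.02% BSA. Channels activated by ~EC80 cinnamaldehyde (75 uM human, 45 uM rat); block of calcium influx read on FLIPR Tetra, IC50 fitted with fixed Hill coefficient.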

Chain of human TRPA1 (O75762 whole entry): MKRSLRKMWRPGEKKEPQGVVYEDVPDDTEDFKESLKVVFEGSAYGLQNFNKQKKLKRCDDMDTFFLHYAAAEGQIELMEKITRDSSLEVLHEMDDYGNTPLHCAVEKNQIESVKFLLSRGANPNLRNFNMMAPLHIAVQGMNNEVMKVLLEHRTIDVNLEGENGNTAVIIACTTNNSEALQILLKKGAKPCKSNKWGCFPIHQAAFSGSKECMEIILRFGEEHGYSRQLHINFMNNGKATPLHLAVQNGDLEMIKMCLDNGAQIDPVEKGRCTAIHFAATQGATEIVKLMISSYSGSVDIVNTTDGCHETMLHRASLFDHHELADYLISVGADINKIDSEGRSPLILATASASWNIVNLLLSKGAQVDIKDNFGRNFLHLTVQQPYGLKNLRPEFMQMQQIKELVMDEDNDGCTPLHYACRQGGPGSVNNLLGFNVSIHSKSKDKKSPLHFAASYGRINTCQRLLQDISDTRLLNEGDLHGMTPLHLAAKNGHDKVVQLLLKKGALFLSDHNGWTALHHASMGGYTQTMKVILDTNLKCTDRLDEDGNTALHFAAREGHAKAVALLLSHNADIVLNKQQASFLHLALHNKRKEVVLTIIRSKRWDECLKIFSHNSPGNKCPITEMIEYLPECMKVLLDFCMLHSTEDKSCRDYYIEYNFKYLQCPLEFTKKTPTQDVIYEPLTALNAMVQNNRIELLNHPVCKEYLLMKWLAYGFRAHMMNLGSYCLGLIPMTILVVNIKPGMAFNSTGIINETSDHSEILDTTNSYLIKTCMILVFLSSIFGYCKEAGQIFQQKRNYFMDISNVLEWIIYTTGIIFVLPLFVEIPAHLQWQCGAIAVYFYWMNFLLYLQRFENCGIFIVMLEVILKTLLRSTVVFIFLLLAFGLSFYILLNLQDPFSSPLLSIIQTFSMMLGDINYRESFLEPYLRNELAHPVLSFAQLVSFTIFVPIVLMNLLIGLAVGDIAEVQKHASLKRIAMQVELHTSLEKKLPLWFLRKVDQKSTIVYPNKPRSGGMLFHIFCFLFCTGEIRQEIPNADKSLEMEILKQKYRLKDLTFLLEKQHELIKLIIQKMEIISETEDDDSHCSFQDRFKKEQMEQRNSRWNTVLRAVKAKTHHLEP

| pIC50 | Molecule |
| --- | --- |
| 7.59 | O=C(NCc1cc(-c2cnc(C(F)(F)F)nc2)ncc1F)[C@@H]1C[C@@H](F)CN1S(=O)(=O)c1ccc(F)cc1 [Example 180, (2S,4R)-4-fluoro-1-(4-fluorophenyl)sulfonyl-N-[[5-fluoro-2-[2-(trifluoromethyl)pyrimidin-5-yl]-4-pyridyl]methyl]pyrrolidine-2-carboxamide] |
| 7.70 | O=C(NCc1cc(F)cc(-c2ccc(C(F)(F)F)nn2)c1)[C@@H]1C[C@@H](F)CN1S(=O)(=O)c1ccc(F)cc1 [Example 89, (2S,4R)-4-fluoro-1-(4-fluorophenyl)sulfonyl-N-[[3-fluoro-5-[6-(trifluoromethyl)pyridazin-3-yl]phenyl]methyl]pyrrolidine-2-carboxamide] |
| 7.28 | O=C(NCc1cc(-c2ccc(C(F)(F)F)nc2)ncn1)C1C2CC(CC2F)N1S(=O)(=O)c1ccc(F)cc1 (stereo not shown) [Example 51, 5-fluoro-2-(4-fluorophenyl)sulfonyl-N-[[6-[6-(trifluoromethyl)-3-pyridyl]pyrimidin-4-yl]methyl]-2-azabicyclo[2.2.1]heptane-3-carboxamide] |
| 7.07 | O=C(NCc1ccnc(-c2ccc(OC(F)F)cc2)c1)[C@@H]1C[C@@H](F)CN1S(=O)(=O)c1ccc(F)cc1 [Example 160, (2S,4R)—N-[[2-[4-(difluoromethoxy)phenyl]-4-pyridyl]methyl]-4-fluoro-1-(4-fluorophenyl)sulfonyl-pyrrolidine-2-carboxamide] |
| 6.55 | C[C@@H]1[C@@H](C(=O)NCc2cc(-c3ccc(C(F)(F)F)nc3)ncn2)N(S(=O)(=O)c2ccc(F)cc2)C[C@@H]1F (single isomer, unassigned) [Example 106] |
| 6.68 | O=C(NCc1cc(-c2cnc(C(F)(F)F)nc2)cnc1F)[C@@H]1C[C@@H](F)CN1S(=O)(=O)c1ccc(F)cc1 [Example 171, (2S,4R)-4-fluoro-1-(4-fluorophenyl)sulfonyl-N-[[2-fluoro-5-[2-(trifluoromethyl)pyrimidin-5-yl]-3-pyridyl]methyl]pyrrolidine-2-carboxamide] |
| 7.34 | O=C(NCc1cc(C2=CCC(C(F)(F)F)CC2)ncn1)[C@@H]1C[C@@H](F)CN1S(=O)(=O)c1ccc(F)cc1 (stereo partly drawn) [Example 148, (2S,4R)-4-fluoro-1-(4-fluorophenylsulfonyl)-N-((6-(4-(trifluoromethyl)cyclohex-1-enyl)pyrimidin-4-yl)methyl)pyrrolidine-2-carboxamide] |
| 8.05 | COc1nn(-c2ccc(C(F)(F)F)nc2)cc1CNC(=O)[C@]1(C)C[C@@H](F)CN1S(=O)(=O)c1ccc(F)cc1 [Example 125, (2S,4R)-4-fluoro-1-[(4-fluorobenzene)sulfonyl]-N-([3-methoxy-1-[6-(trifluoromethyl)pyridin-3-yl]-1H-pyrazol-4-yl]methyl)-2-methylpyrrolidine-2-carboxamide] |
| 8.40 | C[C@H]1CC[C@@H](C(=O)NCc2ccnc(-c3cnc(C(F)(F)F)nc3)c2)N1S(=O)(=O)c1ccc(F)cc1 [Example 186, (2S,5S)-1-(4-fluorophenylsulfonyl)-5-methyl-N-((2-(2-(trifluoromethyl)pyrimidin-5-yl)pyridin-4-yl)methyl)pyrrolidine-2-carboxamide] |
| 7.85 | O=C(NCc1cc(F)cc(-c2cnc(C(F)(F)F)nc2)c1)[C@@H]1C[C@@H](F)CN1S(=O)(=O)c1ccc(F)cc1 [Example 91, (2S,4R)-4-fluoro-1-(4-fluorophenyl)sulfonyl-N-[[3-fluoro-5-[2-(trifluoromethyl)pyrimidin-5-yl]phenyl]methyl]pyrrolidine-2-carboxamide] |
| 7.43 | COc1cc(-c2ccc(C(F)(F)F)nc2)cc(CNC(=O)[C@@H]2C[C@@H](F)CN2S(=O)(=O)c2ccc(F)cc2)n1 [Example 118, (2S,4R)-4-fluoro-1-[(4-fluorobenzene)sulfonyl]-N-([6-methoxy-4-[6-(trifluoromethyl)pyridin-3-yl]pyridin-2-yl]methyl)pyrrolidine-2-carboxamide] |
| 7.96 | C[C@@]1(F)C[C@@H](C(=O)NCc2cc(F)cc(-c3cnc(C(F)(F)F)cn3)c2)N(S(=O)(=O)c2ccc(F)cc2)C1 [Example 47, (2S,4R)-4-fluoro-N-(3-fluoro-5-(5-(trifluoromethyl)pyrazin-2-yl)benzyl)-1-((4-fluorophenyl)sulfonyl)-4-methylpyrrolidine-2-carboxamide] |
| 7.37 | O=C(NCc1cc(-c2ccc(C(F)(F)F)nn2)ccc1F)[C@@H]1C[C@@H](F)CN1S(=O)(=O)c1ccc(F)cc1 [Example 163, (2S,4R)-4-fluoro-N-(2-fluoro-5-(6-(trifluoromethyl)pyridazin-3-yl)benzyl)-1-((4-fluorophenyl)sulfonyl)pyrrolidine-2-carboxamide] |
| 6.79 | Cc1nc(CNC(=O)[C@@H]2C[C@@H](F)CN2S(=O)(=O)c2ccc(F)cc2)cc(-c2ccc(C(F)(F)F)nc2)n1 [Example 152, (2S,4R)-4-fluoro-1-(4-fluorophenylsulfonyl)-N-((2-methyl-6-(6-(trifluoromethyl)pyridin-3-yl)pyrimidin-4-yl)methyl)pyrrolidine-2-carboxamide] |
| 7.22 | N#Cc1nn(-c2ccc(C(F)(F)F)cc2)cc1CNC(=O)[C@@H]1C[C@@H](F)CN1S(=O)(=O)c1ccc(F)cc1 [Example 50, (2S,4R)—N-([3-cyano-1-[4-(trifluoromethyl)phenyl]-1H-pyrazol-4-yl]methyl)-4-fluoro-1-[(4-fluorobenzene)sulfonyl]pyrrolidine-2-carboxamide] |
| 7.14 | O=C(NCc1cc(-c2ccc(OC(F)(F)F)c(F)c2)ncn1)[C@@H]1C[C@@H](F)CN1S(=O)(=O)c1ccc(F)cc1 [Example 104, (2S,4R)-4-fluoro-N-([6-[3-fluoro-4-(trifluoromethoxy)phenyl]pyrimidin-4-yl]methyl)-1-[(4-fluorobenzene)sulfonyl]pyrrolidine-2-carboxamide] |
| 7.59 | COc1nn(-c2ccc(C(F)(F)F)nc2)cc1CNC(=O)[C@@H]1[C@@H](F)CCN1S(=O)(=O)c1ccc(F)cc1 [Example 103, (2R,3S)-3-fluoro-1-(4-fluorophenylsulfonyl)-N-((3-methoxy-1-(6-(trifluoromethyl)pyridin-3-yl)-1H-pyrazol-4-yl)methyl)pyrrolidine-2-carboxamide] |
| 6.87 | O=C(NCc1cc(-c2ccc(C3CC3)cc2)ncn1)[C@@H]1C[C@@H](F)CN1S(=O)(=O)c1ccc(F)cc1 [Example 155, (2S,4R)—N-((6-(4-cyclopropylphenyl)pyrimidin-4-yl)methyl)-4-fluoro-1-(4-fluorophenylsulfonyl)pyrrolidine-2-carboxamide] |
| 8.40 | O=C(NCc1cc(F)cc(-c2cnc(C(F)(F)F)cn2)c1)[C@@H]1[C@@H](F)CCN1S(=O)(=O)c1ccc(F)cc1 [Example 98, (2R,3S)-3-fluoro-N-([3-fluoro-5-[5-(trifluoromethyl)pyrazin-2-yl]phenyl]methyl)-1-[(4-fluorobenzene)sulfonyl]pyrrolidine-2-carboxamide] |
| 7.17 | COc1nn(-c2ccc(C(F)(F)F)nc2)cc1CNC(=O)[C@@H]1C[C@@H](F)CN1S(=O)(=O)c1ccc(F)cc1 [Example 153, (2S,4R)-4-fluoro-1-[(4-fluorobenzene)sulfonyl]-N-([3-methoxy-1-[6-(trifluoromethyl)pyridin-3-yl]-1H-pyrazol-4-yl]methyl)pyrrolidine-2-carboxamide] |
| 7.48 | O=C(NCc1cc(-c2ccc(C(F)F)cc2)ncn1)[C@@H]1[C@@H](F)CCN1S(=O)(=O)c1ccc(F)cc1 [Example 55, (2R,3S)—N-[[6-[4-(difluoromethyl)phenyl]pyrimidin-4-yl]methyl]-3-fluoro-1-(4-fluorophenyl)sulfonyl-pyrrolidine-2-carboxamide] |
| 7.18 | O=C(NCc1cc(Cl)nc(-c2ccc(OC(F)F)cc2)c1)[C@@H]1C[C@@H](F)CN1S(=O)(=O)c1ccc(F)cc1 [Example 165, (2S,4R)—N-((2-chloro-6-(4-(difluoromethoxy)phenyl)pyridin-4-yl)methyl)-4-fluoro-1-((4-fluorophenyl)sulfonyl)pyrrolidine-2-carboxamide] |
| 6.73 | O=C(NCc1cc(-c2ccc(C(F)(F)F)nc2)ccn1)[C@@H]1C[C@@H](F)CN1S(=O)(=O)c1ccc(F)cc1 [Example 81, (2S,4R)-4-fluoro-1-(4-fluorophenyl)sulfonyl-N-[[4-[6-(trifluoromethyl)-3-pyridyl]-2-pyridyl]methyl]pyrrolidine-2-carboxamide] |
| 7.40 | (2S,4R)-4-fluoro-N-[[5-fluoro-4-[5-fluoro-6-(trifluoromethyl)-3-pyridyl]-2-pyridyl]methyl]-1-(4-fluorophenyl)sulfonyl-pyrrolidine-2-carboxamide [Example 65] |
| 7.28 | O=C(NCc1cc(-c2ccc(OC(F)F)cc2)c(F)cn1)[C@@H]1C[C@@H](F)CN1S(=O)(=O)c1ccc(F)cc1 [Example 77, (2S,4R)—N-([4-[4-(difluoromethoxy)phenyl]-5-fluoropyridin-2-yl]methyl)-4-fluoro-1-[(4-fluorobenzene)sulfonyl]pyrrolidine-2-carboxamide] |
| 7.31 | O=C(NCc1cc(-c2ccc(C(F)(F)F)nc2)cc(F)n1)[C@@H]1C[C@@H](F)CN1S(=O)(=O)c1ccc(F)cc1 [Example 120, (2S,4R)-4-fluoro-1-(4-fluorophenyl)sulfonyl-N-[[6-fluoro-4-[6-(trifluoromethyl)-3-pyridyl]-2-pyridyl]methyl]pyrrolidine-2-carboxamide] |
| 7.82 | O=C(NCc1cn(-c2ccc(C(F)(F)F)cc2)nc1Cl)[C@@H]1CCN1S(=O)(=O)c1ccc(F)cc1 [Example 197, (2S)—N-([3-chloro-1-[4-(trifluoromethyl)phenyl]-1H-pyrazol-4-yl]methyl)-1-[(4-fluorobenzene)sulfonyl]azetidine-2-carboxamide] |
| 7.21 | O=C(NCc1cc(F)cc(-c2cnc(C(F)F)cn2)c1)[C@@H]1C[C@@H](F)CN1S(=O)(=O)c1ccc(F)cc1 [Example 90, (2S,4R)—N-[[3-[5-(difluoromethyl)pyrazin-2-yl]-5-fluoro-phenyl]methyl]-4-fluoro-1-(4-fluorophenyl)sulfonyl-pyrrolidine-2-carboxamide] |

— US11236046B2, “Substituted heterocyclic sulfonamide compounds useful as TRPA1 modulators” (Genentech, Inc., priority 2013, dated 2022)
